Data on 3 compounds can be found in patent publication US9101539B2, “Intranasal pharmaceutical compositions with improved pharmacokinetics” (SHIN NIPPON BIOMEDICAL LABORATORIES, LTD., priority 2009, dated 2015).

What is called Cmax is the maximum level reached in the sampled fluid or tissue. For orientation: Tmax means the time from dosing to the highest level.

The structures appear in SMILES notation.

Data set [1] in a line: in vivo. The conditions noted are these: rhesus monkey, inhaled or intranasal. As to the method:
Blood was obtained at 10, 20, 30, 60, 120, 240, and 480 minutes post-administration from the monkeys administered the solid dosage form. For the monkeys treated with the nasal spray, blood was obtained 5, 10, 20, 30, 60, 120, 240, and 480 minutes post-treatment.
Blood was obtained at 5, 10, 20, 30, 60, 120, and 240 minutes post-administration.
Administered dose was 6 mg/animal. […] Blood was obtained at 5, 10, 20, 30, 60, 120, and 240 minutes post-administration.
(§1) Administered dose was 6 mg/animal. […] Administered dose was 6 mg/animal. Blood was obtained at 5, 10, 20, 30, 60, 120, and 240 minutes post-administration.
Total dose was 6 mg/animal. Blood was obtained at 5, 10, 20, 30, 60, 120, and 240 minutes post-administration.
as §1, §1
(§2) Administered dose was 6 mg/animal. […] Administered dose was 6 mg/animal. […] Blood was obtained at 5, 10, 20, 30, 60, 120, and 240 minutes post-administration.
as §2

Data set [2] can be described thus: Zolmitriptan pharmacokinetics (plasma concentration versus time) in rhesus monkeys. Type of data set: in vivo. The conditions noted are these: 5 mg/animal; for Tmax: intranasal dry powder, n=2. Here is the method: The pharmacokinetics of a zolmitriptan liquid nasal spray and a dry powder formulation were studied in two groups of rhesus monkeys. One group, n=2, was administered a nasal spray of zolmitriptan (Zomig®, 5 mg/100 μl in an aqueous buffered solution). A second, n=2, was administered intranasal zolmitriptan freebase with a particle size of <15 μm. The administered dose was 5 mg/animal.
One group, n=2, was administered intranasal zolmitriptan freebase with a particle size of <15 μm. Administered dose was 5 mg/animal. […] Administered dose was 5 mg/animal.

Where [3] appears, read: intranasal dry powder <15 μm, versus Zomig nasal spray.

Take `CNS(=O)(=O)Cc1ccc2[nH]cc(CCN(C)C)c2c1` [sumatriptan freebase]: the “Cmax among the formulations tested that contained freebase” value in data set [1] is on record as “highest”.
Compound `CNS(=O)(=O)Cc1ccc2[nH]cc(CCN(C)C)c2c1` [sumatriptan succinate] came in with a Cmax in data set [1] (6 mg, Cmax) of 696 ng/mL. For the same compound, the time of peak concentration (Tmax) in data set [1] (6 mg, Tmax) was 7.5 min.
As for `CN(C)CCc1c[nH]c2ccc(C[C@H]3COC(=O)N3)cc12` [zolmitriptan freebase], in data set [2] (setting [3]), the “BA compared with the liquid spray” value is on record as “significantly increased” and the “Cmax compared with the liquid spray” value was “significantly increased”. The Tmax in data set [2] (50% of the particles <15 μm and 50% 38 μm-100 μm) turned out to be 20 min. In data set [2] (particle size <15 μm), the Tmax is 10 min.
